Test results reported in paper PMC8001704, “A Review of Red Yeast Rice, a Traditional Fermented Food in Japan and East Asia: Its Characteristic Ingredients and Application in the Maintenance and Improvement of Health in Lipid Metabolism and the Circulatory System” (Molecules, 2021).
Like-named read-outs stand apart in the source and are kept apart here.

Experiments:
[1] = test system: presynaptic GABA receptors; parameters: method as in PMID 10369462, PMID 11906718; details: through reduction of adrenergic vasoconstriction; cited from earlier work
[2] = parameters: method as in PMID 16256107, PMID 8930162; details: cited from earlier work
[3] = test system: Squamous epithelial cancer cells; parameters: method as in PMID 20562912; details: cited from earlier work
[4] = test system: Patients with hypercholesterolemia; parameters: method as in PMID 9456275; details: cited from earlier work
[5] = Pharmacokinetics of monacolin K in plasma after single oral administration of purified monacolin K or red yeast rice; format: in vivo, male SD rats; details: for AUC(0-t) / Cmax: male, SD, rat, po
Source text: Recently, we compared the pharmacokinetics of monacolin K in blood after oral administration of purified monacolin K (lactone form, 99% purity) and red yeast rice produced by solid-state fermentation in male SD rats (7 weeks old). Most of the monacolin K in the plasma was detected in its acid form: both in the monacolin K-administered group and the red yeast rice -administered group. […] The medicinal benefit of red yeast rice is considered to be different to that of monacolin K alone. […] Since red yeast rice contains various ingredients, synergistic effects are expected.
Figure 14 Plasma concentrations of lactone form and acid form of monacolin K after single administration of purified monacolin K or red yeast rice (40 mg/kg monacolin K or dose of red yeast rice equivalent to 40 mg/kg monacolin K) in male SD rats (7 weeks old). Each bar indicates the mean ± standard deviation, quantified according to the reference method.

[6] = test system: Rabbits fed on a high-lipid diet; parameters: method as in PMID 1376794; details: cited from earlier work
Cardiac myocytes = test system: Cardiac myocytes; parameters: method as in PMID 11444504; details: cited from earlier work
[7] = test system: Mesenchymal stem cells derived from rat bone marrow; parameters: method as in PMID 17497701; details: cited from earlier work
cholesterol synthesis = details: cited from earlier work
[8] = test system: Human umbilical vein endothelial cells (HUVECs); parameters: method as in PMID 16141529; details: cited from earlier work
[9] = parameters: method as in PMID 27014344, doi:10.17546/msd.58298; details: cited from earlier work
[10] = parameters: method as in PMID 23675421, PMID 7830729; details: cited from earlier work
experimental animals = test system: experimental animals; parameters: method as in PMID 22929438; details: Several studies using experimental animals; cited from earlier work
Hypertensive model mice = test system: Hypertensive model mice; parameters: method as in PMID 10405198; details: cited from earlier work
[11] = test system: peroxisome proliferator-activated receptors (PPARs), e.g., PPARα; parameters: method as in PMID 24275089; details: cited from earlier work
[12] = parameters: method as in PMID 27422746; details: cited from earlier work
[13] = plasma, single administration, 40 mg/kg monacolin K or equivalent, individual rats 101-103, 201-203, 40 mg/kg

NCCCC(=O)O [GABA, γ-amino butyric acid]
effect on blood pressure [1]: hypotensive effect | increases in blood pressure [2]: suppresses | sodium excretion from the kidneys [2]: promotes

CC[C@H](C)C(=O)O[C@H]1C[C@@H](C)C=C2C=C[C@H](C)[C@H](CC[C@@H]3C[C@@H](O)CC(=O)O3)[C@H]21 [Monacolin K, monacolin K]
Effect of Monacolin K, NOS signaling pathway [3]: Induction of expression of Rho family proteins | Effect of Monacolin K, atheroma formation [4]: Inhibition of platelet aggregation, macrophage foam cell formation and LDL oxidation | form in which most of the monacolin K in the plasma was detected ([5]; after oral administration, male SD rats): acid form | AUC(0-t) ([5]; plasma, 40 mg/kg, plasma, single administration, 40 mg/kg monacolin K or equivalent dose of red yeast rice, male SD rats, mean, read-out: AUC0–4h of monacolin K lactone, Mean): 2.48 ng·h/mL | Cmax ([5]; plasma, 40 mg/kg, plasma, single administration, 40 mg/kg monacolin K or equivalent dose of red yeast rice, male SD rats, mean, read-out: Cmax of monacolin K lactone, Mean): 2.48 ng/mL | AUC(0-t) ([5]; plasma, 40 mg/kg, plasma, single administration, 40 mg/kg monacolin K or equivalent, individual rats 101-103, 201-203, read-out: AUC0–4h of monacolin K lactone, individual animals): 3.11 ng·h/mL | Cmax ([5]; plasma, 40 mg/kg, plasma, single administration, 40 mg/kg monacolin K or equivalent, individual rats 101-103, 201-203, read-out: Cmax of monacolin K lactone, individual animals): 3.11 ng/mL | AUC0–4h of monacolin K lactone, individual animals [5, 13]: 1.85 ng·h/mL | Cmax of monacolin K lactone, individual animals [5, 13]: 1.85 ng/mL | Effect of Monacolin K, atheroma formation [6]: Decrease in number of plaques in the aorta and lung artery | Effect of Monacolin K, NOS signaling pathway (Cardiac myocytes): Increase of IL-1 induced production of nitrite (Increase in NOS expression and NO production mediated by Rho inhibition) | Effect of Monacolin K, NOS signaling pathway [7]: Activation (phosphorylation) of AI3K/Akt pathway and MEK 1/2 pathway | inhibition of cholesterol synthesis (cholesterol synthesis): potent inhibitor of cholesterol synthesis | Effect of Monacolin K, atheroma formation [8]: Inhibition of NF-KB activation by CRP | plasma viscosity [9]: decrease plasma viscosity | oxidation of LDL [10]: inhibits | vascular endothelial function (vasoconstrictor reaction) ([10]; in hyperlipidemia): improves | Effect of Monacolin K, blood circulation (experimental animals): Increase in cerebral blood flow and cerebral vasomotor response | Effect of Monacolin K, blood circulation (Hypertensive model mice): Increase in renal blood flow

C/C=C/C1=CC2=C(CO1)C(=O)[C@]1(C)OC(=O)[C@H](C(=O)CCCCCCC)[C@H]1C2 [ankaflavin]
action on PPARs, e.g., PPARα [11]: agonist | LDL-cholesterol oxidation [12]: suppressed

O=C1[C@H](CC[C@H](O)c2ccc(F)cc2)[C@@H](c2ccc(O)cc2)N1c1ccc(F)cc1 [ezetimibe]
plasma viscosity [9]: decrease plasma viscosity

C/C=C/C1=CC2=C(CO1)C(=O)[C@]1(C)OC(=O)[C@H](C(=O)CCCCC)[C@H]1C2 [monascin]
action on PPARs, e.g., PPARα [11]: agonist | LDL-cholesterol oxidation [12]: suppressed
